We go through 24 compounds from US20200237766A1, “PKM2 ACTIVATORS IN COMBINATION WITH REACTIVE OXYGEN SPECIES FOR TREATMENT OF CANCER” (TOLERO PHARMACEUTICALS, INC., priority 2017, published 2020).

The structures appear in SMILES notation. Like-named read-outs stand apart in the source and are kept apart here.

In this test the target is PKM2 (Homo sapiens, UniProt P14618). Nature of the test: PKM2 activation biochemical assay (AC50 / max. response vs fructose 1,6-bisphosphate). Conditions: for Max. Resp. (%): % maximum response in a biochemical assay as compared with Fructose 1,6-bisphosphate.
Chain of PKM2 (P14618 whole entry): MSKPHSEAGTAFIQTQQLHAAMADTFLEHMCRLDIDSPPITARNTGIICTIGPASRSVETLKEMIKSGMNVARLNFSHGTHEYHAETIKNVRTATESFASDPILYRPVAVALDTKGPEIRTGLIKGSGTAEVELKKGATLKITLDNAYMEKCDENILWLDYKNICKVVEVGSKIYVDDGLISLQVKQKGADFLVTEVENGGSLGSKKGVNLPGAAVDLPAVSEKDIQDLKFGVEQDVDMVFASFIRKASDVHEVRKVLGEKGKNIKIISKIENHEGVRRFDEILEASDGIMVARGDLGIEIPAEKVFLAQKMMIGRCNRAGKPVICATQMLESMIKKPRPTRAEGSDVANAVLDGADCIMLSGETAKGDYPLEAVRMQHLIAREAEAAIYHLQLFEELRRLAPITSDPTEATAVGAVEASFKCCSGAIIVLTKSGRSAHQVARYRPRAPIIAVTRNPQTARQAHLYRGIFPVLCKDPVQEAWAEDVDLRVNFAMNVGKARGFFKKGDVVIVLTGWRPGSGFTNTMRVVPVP
Setting [1] is: biochemical assay, read-out: PKM2 AC50.

Usually AC50 stands for the concentration giving half of the maximal activity seen. For `O=C(c1cc(C(F)(F)F)n[nH]1)N(CCOC1CCCC1)Cc1ccccc1F` [Compound 39], the “Max. Resp. (%)” value is recorded as 30%. Besides, the AC50 under setting [1] amounted to 47000 nM. As to `O=C(c1cc(C(F)(F)F)n[nH]1)N(CCN1CCCCCC1)Cc1ccccc1F` [Compound 197], the “Max. Resp. (%)” value came out at 100%. Besides, the concentration at half-maximal activity (AC50) under setting [1] worked out at 63 nM. The corresponding values for `O=c1cc(Cn2cnc3ccccc32)nc2ccccn12` [PP4] are 161% and 340 nM.

On to `Cn1cc(C(=O)c2cccc(Cl)c2Cl)cc1C(=O)NCNC(=O)c1cc(C(=O)c2cccc(Cl)c2Cl)cn1C` [CA4], for which the half-maximal activity concentration (AC50) under setting [1] worked out at 3.2 nM. Take `N#Cc1ccc(C(=O)CCSC(=S)NCc2cccnc2)cc1` [PMA12]: the “Max. Resp. (%)” value was determined as 61%. Further, under setting [1], the AC50 was determined as 4390 nM.

For the compound `CC1CCN(CCN(Cc2ccccc2Cl)C(=O)c2cc(C(F)(F)F)n[nH]2)CC1` [Compound 190], the “Max. Resp. (%)” value was 100%. Besides, the AC50 under setting [1] is 42 nM. `Nc1cccc(CN(CCN2CCS(=O)(=O)CC2)C(=O)c2cc(C(F)(F)F)n[nH]2)c1` [Compound 112]: the “Max. Resp. (%)” value is given as 91%. Moreover, the AC50 under setting [1] worked out at 1070 nM. On to `CCN(CC)CCN(Cc1ccccc1F)C(=O)c1cc(C(F)(F)F)n[nH]1` [Compound 148], for which half-maximal activity (AC50) was put at 505 nM and the “Max. Resp. (%)” value stood at 100%. For `CC1CCCCN1CCN(Cc1ccccc1Cl)C(=O)c1cc(C(F)(F)F)n[nH]1` (centres unmarked) [Compound 192], the “Max. Resp. (%)” value was 100%. Further, the AC50 under setting [1] amounted to 104 nM. With `CN1CCC(CN(Cc2ccccc2F)C(=O)c2cc(C(F)(F)F)n[nH]2)CC1` [Compound 100], the “Max. Resp. (%)” value came out at 29%. The AC50 under setting [1] amounted to 101000 nM.

Consider `CCc1nn2c(=O)cc(Cn3cnc4ccccc43)nc2s1` [PP19], for which the AC50 under setting [1] was 4760 nM.

As for `O=C(c1cc(C(F)(F)F)n[nH]1)N(CCc1ccc(O)cc1)Cc1ccccc1Cl` [Compound 230], the “Max. Resp. (%)” value is recorded as 100%. The concentration at half-maximal activity (AC50) under setting [1] stood at 12000 nM. In the case of `CCN1CCC(CCN(Cc2ccccc2Cl)C(=O)c2cc(C(F)(F)F)n[nH]2)CC1` [Compound 101], the “Max. Resp. (%)” value is recorded as 96%. For the same compound, the AC50 under setting [1] was 1860 nM.

On to `Nc1ccc(F)c(CN(CCN2CCCCCC2)C(=O)c2cc(C(F)(F)F)n[nH]2)c1` [Compound 214], for which the “Max. Resp. (%)” value came to 100%. For the same compound, under setting [1], the AC50 turned out to be 153 nM.

For `O=c1cc(Cn2cnc3ccccc32)nc2sccn12` [PP18], the AC50 under setting [1] was 266 nM.

As for `O=C1CCC(CCN(Cc2ccccc2F)C(=O)c2cc(C(F)(F)F)n[nH]2)CC1` [Compound 60], the “Max. Resp. (%)” value stood at 105%. The AC50 under setting [1] was found to be 101 nM. Regarding `O=C(c1cc(C(F)(F)F)n[nH]1)N(Cc1ccccc1Cl)CC1CCC1` [Compound 127], the AC50 came out at 258 nM and the “Max. Resp. (%)” value turned out to be 100%.

Turning to `O=C(c1cc(C(F)(F)F)n[nH]1)N(CCN1CCS(=O)(=O)CC1)Cc1ccccc1F` [Compound 108], the activity was half-maximal at 7800 nM (AC50) and the “Max. Resp. (%)” value is reported as 92%.

Turning to `O=C(c1cc(C(F)(F)F)n[nH]1)N(CCC1CCS(=O)(=O)CC1)Cc1ccccc1Cl` [Compound 78], the AC50 under setting [1] was 485 nM. For the compound `CO[C@H]1CC[C@H](N(Cc2cc(F)ccc2F)C(=O)c2cc(C(F)(F)F)n[nH]2)CC1` [Compound 50], the AC50 is 1670 nM and the “Max. Resp. (%)” value worked out at 90%. For `O=C(c1cc(C(F)(F)F)n[nH]1)N(CCN1CCCC1)Cc1ccccc1Cl` [Compound 162], the activity was half-maximal at 107 nM (AC50) and the “Max. Resp. (%)” value worked out at 100%. `O=C(c1cc(C(F)(F)F)n[nH]1)N(CCC1CCOC1)Cc1c(F)cccc1F` (centres unmarked) [Compound 40]: half-maximal activity (AC50) was put at 1170 nM and the “Max. Resp. (%)” value is on record as 114%. On to `CO[C@H]1CC[C@H](N(Cc2ncccc2Cl)C(=O)c2cc(C(F)(F)F)n[nH]2)CC1` [Compound 56], for which the half-maximal activity concentration (AC50) is 2580 nM and the “Max. Resp. (%)” value came out at 48%. Consider `CCN(CC)CCN(Cc1cccc2[nH]cnc12)C(=O)c1cc(C(F)(F)F)n[nH]1` [Compound 160], for which the “Max. Resp. (%)” value worked out at 100%. The concentration at half-maximal activity (AC50) under setting [1] was determined as 825 nM.
